From patent EP4674852A1, “PREPARATION METHOD FOR AND USE OF DIHYDROTHIENOPYRIMIDINE DERIVATIVE” (Innovstone Therapeutics Limited, priority 2023, dated 2024)

What was measured:
[1] = molecular target: T1, PDE4D2 (Homo sapiens, UniProt Q08499); assay: In vitro PDE4D2 enzyme inhibitory activity (AMP-Glo), reported as PDE4D2/PDE4B2 selectivity; format: biochemical; settings: Ratio of IC50 value of PDE4D2 enzyme inhibition/IC50 value of PDE4B2 enzyme inhibition
T1 construct: purchased BPS bioscience
Protocol: Assay 1: In vitro evaluation of inhibitory activities of the compounds against PDE4B2 and PDE4D2 enzymes 1. Assay materials and instruments:
2. Assay procedure: • 2.1 Compound preparation and treatment • 2.1.1 Preparing stock solutions of compounds in DMSO: Compound powders were dissolved in 100% DMSO to produce 10 mM stock solutions, and oscillated in a shaker until the compounds were completely dissolved. • 2.1.2 Storing stock solutions of compounds in DMSO: Stock solutions of compounds in DMSO were stored in a desiccator at room temperature. • 2.1.3 Preparing working stock solutions: a) A solution of Roflumilast (reference compound) in DMSO was diluted to 60 µM, and then serially diluted 4-fold into 10 concentration gradients. B) The solutions of the test compounds in DMSO were diluted to 200 µM, and then serially diluted 3-fold. C) A 200X positive control (60 µM Roflumilast) and a 200X vehicle control (100% DMSO) were prepared. D) The assay plate was centrifuged at 1000 rpm for 1 minute. • 2.2 Compound testing • (1) 20 nL of compound dilution solutions were transferred with Echo 550 into each well of the assay plate. • (2) The assay plate was sealed and centrifuged at 1000 rpm for 1 minute. • (3) 2X PDE4B2/PDE4D2 was prepared in an ice-cold PDE assay buffer. • (4) 2 µL of 2X PDE4B2/PDE4D2 was added to each well of the assay plate prepared in step 2. • (5) The assay plate was sealed and allowed to equilibrate at room temperature for 10 minutes. • (6) 2X Cyclic-3',5'-AMP was prepared in a PDE assay buffer. • 7) 2µL of 2X Cyclic-3',S'-AMP (prepared in step 6) was added to each well of the assay plate (prepared in step 5) to initiate the reaction. The plate was incubated at room temperature for 60 minutes. • 8) 4µL AMP-Glo Reagent I was added, and the plate was incubated at room temperature for 60 minutes. • 9) 8µL AMP detection reagent was added. The plate was incubated at room temperature for 60 minutes. • 10) The RLU signal was read on an Envision 2105 plate reader.

[2] = test system: LPS-induced TNF-α secretion from human PBMC; assay: Inhibition of LPS-induced TNF-α secretion from human PBMC; format: cell-based; settings: hPBMC, LPS 10 ng/mL, 24 hours
Protocol: Assay 3: Test of the inhibition of compounds on LPS-induced TNF-α secretion from human PBMC
Frozen hPBMC cell stock solution was rapidly thawed in a 37°C water bath. The cells were transferred to complete medium (RPMI 1640+10% FBS+1% P/S). The suspension was centrifuged at 1000 rpm for 5 minutes. The supernatant was discarded, and the cells were resuspended in 1 mL complete medium (RPMI 1640 + 10% FBS + 1% P/S). After gentle pipetting to mix, the cells were counted using trypan blue staining. Cells were seeded into a 96-well cell culture plate at 5×10^4 cells/well, with 100 µL/well of complete medium. Test compounds were prepared at 4×the final concentration and added to the cells at 50 µL/well, followed by a 30-minute pre-incubation. Control wells without compound were simultaneously set up. LPS was prepared as a 4×solution to achieve a final stimulation concentration of 10 ng/mL and added to the cells at 50µL/well. Control wells without LPS were simultaneously set up. The incubation of cells was continued and 10% of supernatant was collected for detection after 24 hours. The collected supernatant was detected according to the Human TNF-α kit of R&D Company (VAL105G). The inhibitory activities of the compounds of the present invention on LPS-induced TNF-α secretion from human PBMC were determined according to the above method. […]

T1 sequence (Q08499 303-809 limits assumed): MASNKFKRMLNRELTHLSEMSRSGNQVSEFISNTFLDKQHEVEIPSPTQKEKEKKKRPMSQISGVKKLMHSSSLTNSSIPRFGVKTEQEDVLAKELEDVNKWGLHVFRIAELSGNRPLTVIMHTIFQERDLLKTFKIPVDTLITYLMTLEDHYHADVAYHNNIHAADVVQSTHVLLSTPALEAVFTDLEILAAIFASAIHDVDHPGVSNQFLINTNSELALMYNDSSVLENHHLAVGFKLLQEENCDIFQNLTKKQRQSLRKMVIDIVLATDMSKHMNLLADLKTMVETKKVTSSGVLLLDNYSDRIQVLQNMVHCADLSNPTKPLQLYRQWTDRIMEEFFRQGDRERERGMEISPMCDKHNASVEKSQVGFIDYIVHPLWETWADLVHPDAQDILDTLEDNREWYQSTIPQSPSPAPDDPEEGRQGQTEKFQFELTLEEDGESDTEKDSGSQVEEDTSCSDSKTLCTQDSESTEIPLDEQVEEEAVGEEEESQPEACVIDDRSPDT

PDE4D2/PDE4B2 selectivity [1]	SMILES	IC50 [2]
B (2<B≤5)	COc1cc(C2(O)CN(c3nc4c(c(NC5(CO)CCC5)n3)[S+]([O-])CC4)C2)ccc1Cl (racemic) [Compound 3, (R/S)-2-(3-(4-chloro-3-methoxyphenyl)-3-hydroxyazetidin-1-yl)-4-((1-(hydroxymethyl)cyclobutyl)amino)-6,7-dihydrothieno[3,2-d]pyrimidine 5-oxide]	–
B (2<B≤5)	[O-][S+]1CCc2nc(N3CC=C(c4ccc(OC(F)F)cc4)C3)nc(NC3(CO)CCC3)c21 (racemic) [Compound 14, (R/S)-2-(3-(4-(difluoromethoxy)phenyl)-2,5-dihydro-1H-pyrrol-1-yl)-4-((1-(hydroxymethyl)cyclobutyl)amino)-6,7-dihydrothieno[3,2-d]pyrimidine 5-oxide]	–
A (5<A≤10)	COC1(c2ccc(Cl)c(F)c2)CN(c2nc3c(c(NC4(CO)CCC4)n2)[S+]([O-])CC3)C1 (racemic) [Compound 82, (R/S)-2-(3-(4-chloro-3-fluorophenyl)-3-methoxyazetidin-1-yl)-4-((1-(hydroxymethyl)cyclobutyl)amino)-6,7-dihydrothieno[3,2-d]pyrimidine 5-oxide]	–
A (5<A≤10)	COC1(c2ccc(Cl)cc2)CN(c2nc3c(c(NC4(CO)CCC4)n2)[S+]([O-])CC3)C1 (racemic) [Compound 83, (R/S)-2-(3-(4-chlorophenyl)-3-methoxyazetidin-1-yl)-4-((1-(hydroxymethyl)cyclobutyl)amino)-6,7-dihydrothieno[3,2-d]pyrimidine 5-oxide]	1.35 nM
B (2<B≤5)	COC1(c2ccc(Cl)c(F)c2)CN(c2nc3c(c(NC4CCOCC4)n2)[S+]([O-])CC3)C1 (racemic) [Compound 86, (R/S)-2-(3-(4-chloro-3-fluorophenyl)-3-methoxyazetidin-1-yl)-4-((tetrahydro-2H-pyran-4-yl)amino)-6,7-dihydrothieno[3,2-d]pyrimidine 5-oxide]	–
B (2<B≤5)	[O-][S+]1CCc2nc(N3Cc4ccc(OC(F)F)cc4C3)nc(NC3(CO)CCC3)c21 (racemic) [Compound 87, (R/S)-2-(5-(difluoromethoxy)isoindolin-2-yl)-4-((1-(hydroxymethyl)cyclobutyl)amino)-6,7-dihydrothieno[3,2-d]pyrimidine 5-oxide]	–
B (2<B≤5)	COC1(c2ccc(Cl)cc2)CN(c2nc3c(c(NC4CCOCC4)n2)[S+]([O-])CC3)C1 (racemic) [Compound 88, (R/S)-2-(3-(4-chlorophenyl)-3-methoxyazetidin-1-yl)-4-((tetrahydro-2H-pyran-4-yl)amino)-6,7-dihydrothieno[3,2-d]pyrimidine 5-oxide]	–
A (5<A≤10)	[2H]C([2H])([2H])OC1(c2ccc(Cl)cc2)CN(c2nc3c(c(NC4(CO)CCC4)n2)[S+]([O-])CC3)C1 (racemic) [Compound 92, (R/S)-2-(3-(4-chlorophenyl)-3-(methoxy-d3)azetidin-1-yl)-4-((1-(hydroxymethyl)cyclobutyl)amino)-6,7-dihydrothieno[3,2-d]pyrimidine 5-oxide]	–
B (2<B≤5)	[2H]C([2H])([2H])OC1(c2ccc(Cl)cc2)CN(c2nc3c(c(NC4CCOCC4)n2)[S+]([O-])CC3)C1 (racemic) [Compound 94, (R/S)-2-(3-(4-chlorophenyl)-3-(methoxy-d3)azetidin-1-yl)-4-((tetrahydro-2H-pyran-4-yl)amino)-6,7-dihydrothieno[3,2-d]pyrimidine 5-oxide]	–
B (2<B≤5)	COC1(c2ccc(OC(F)F)cc2)CN(c2nc3c(c(NC4(CO)CCC4)n2)[S+]([O-])CC3)C1 (racemic) [Compound 105, (R/S)-2-(3-(4-(difluoromethoxy)phenyl)-3-methoxyazetidin-1-yl)-4-((1-(hydroxymethyl)cyclobutyl)amino)-6,7-dihydrothieno[3,2-d]pyrimidine 5-oxide]	–
B (2<B≤5)	COC1(c2ccc(OCC3CC3)cc2)CN(c2nc3c(c(NC4(CO)CCC4)n2)[S+]([O-])CC3)C1 (racemic) [Compound 106, (R/S)-2-(3-(4-(cyclopropylmethoxy)phenyl)-3-methoxyazetidin-1-yl)-4-((1-(hydroxymethyl)cyclobutyl)amino)-6,7-dihydrothieno[3,2-d]pyrimidine 5-oxide]	–
B (2<B≤5)	COC1(c2ccc(N3CCCC3)cc2)CN(c2nc3c(c(NC4(CO)CCC4)n2)[S+]([O-])CC3)C1 (racemic) [Compound 107, (R/S)-4-((1-(hydroxymethyl)cyclobutyl)amino)-2-(3-methoxy-3-(4-(pyrrolidin-1-yl)phenyl)azetidin-1-yl)-6,7-dihydrothieno[3,2-d]pyrimidine 5-oxide]	–
B (2<B≤5)	COc1ccc(C2(OC)CN(c3nc4c(c(NC5CCOCC5)n3)[S+]([O-])CC4)C2)cc1 (racemic) [Compound 108, (R/S)-2-(3-methoxy-3-(4-methoxyphenyl)azetidin-1-yl)-4-((tetrahydro-2H-pyran-4-yl)amino)-6,7-dihydrothieno[3,2-d]pyrimidine 5-oxide]	–
C (C≤2)	[O-][S+]1CCc2nc(N3CCC(c4ncc(Cl)cn4)CC3)nc(NC3(CO)CCC3)c21 (stereo not shown) [Control 1, reference compound]	146 nM
